Test results from patent US11130781B2, “Antimicrobial peptides and their use” (UNIVERSITEIT UTRECHT HOLDING B.V., priority 2017, dated 2021).
Where two headings read alike, the source gives them in different places. Where no end group is shown, it is not given here.

What was measured:
Format in all cases: cell-based
[1] = system: primary human nasal epithelial cells; test: Toxicity measurement (WST-1 conversion); parameters: Toxicity: key to the marks not given beside the values
Description: The cytotoxic effect of all peptides was determined as previously described (2) using primary human nasal epithelial cells, obtained by nasal brushing of healthy individuals.
Cells were grown to confluence in 96-well plates in Bronchial Epithelial Cell Growth Medium (BEPC, Lonza) at 37° C. and 5% CO2. Peptides were diluted in the same medium to a final concentration of 5 μM and applied to the washed (PBS, twice) cells and incubated for 3 hours or 24 hours at 37° C. After incubation, the medium was removed, cells were washed twice (PBS) and fresh BEPC containing 10% (v/v) cell proliferation reagent WST-1 (Roche) was added to each well.
Conversion of WST-1 is indicative for cell viability and reduced conversion by cells is a measure for cytotoxic effects exerted by peptides. After incubation for 30 minutes at 37° C. the absorbance of each well was measured at 450 nm and 650 nm (reference wavelength). Controls included cells exposed to peptide-free medium (set to 100% WST-1 conversion) and wells without cells (background). Results are based upon 5 individual experiments and defined as follows: “0”, no toxicity; “+”, weakly toxic; “++”, moderately toxic; “+++”, toxic; “++++”, very toxic.

Staphylococcus aureus = conditions: 18 h
Description: (§1) Bacteria (2×10E6 CFU/ml) were suspended in MHB+0.9% NaCl and were mixed 1:1 (vol/vol) with peptides dissolved in the same medium in various concentrations (final conc. 0-10 μM) and added to Bioscreen C analyzer plates (Oy Growth Curves Ab Ltd., Helsinki, Finland) and incubated for 18 h at 37° C. while shaking (200 rpm) in a Bioscreen C analyzer (Oy Growth Curves Ab Ltd). The OD (600 nm) was measured every 15 min. Minimal Inhibitory Concentrations (MIC values) were assessed for each peptide.

Pseudomonas aeruginosa = conditions: 18 h
Description: as §1

Row | Molecule | Toxicity ([1]; peptide 5 μM, 3 hours or 24 hours, WST-1 conversion) | toxicity, in words ([1]; primary human nasal epithelial cells) | Bioscreen MIC values Staphylococcus aureus (Staphylococcus aureus) | Bioscreen MIC values Pseudomonas aeruginosa (Pseudomonas aeruginosa) | toxicity, in words [1]
1 | CC[C@H](C)[C@H](NC(=O)[C@H](CCCCN)NC(=O)[C@H](CCC(=O)O)NC(=O)[C@H](CCCCN)NC(=O)[C@H](CO)NC(=O)[C@H](CCCCN)NC(=O)[C@H](CCCNC(=N)N)NC(=O)[C@H](Cc1ccccc1)NC(=O)[C@H](Cc1ccccc1)NC(=O)[C@H](CC(=O)O)NC(=O)CNC(=O)[C@H](CC(C)C)NC(=O)[C@@H](N)CC(C)C)C(=O)NCC(=O)N[C@@H](CCCCN)C(=O)N[C@@H](CCC(=O)O)C(=O)N[C@@H](Cc1ccccc1)C(=O)N[C@@H](CCCCN)C(=O)N[C@@H](CCCNC(=N)N)C(=O)N[C@H](C(=O)N[C@H](C(=O)N[C@@H](CCC(N)=O)C(=O)N[C@@H](CCCNC(=N)N)C(=O)N[C@H](C(=O)N[C@@H](CCCCN)C(=O)N[C@@H](CC(=O)O)C(=O)N[C@@H](Cc1ccccc1)C(=O)N[C@@H](CC(C)C)C(=O)N[C@@H](CCCNC(=N)N)C(=O)N[C@@H](CC(N)=O)C(=O)N[C@@H](CC(C)C)C(=O)N[C@H](C(=O)N1CCC[C@H]1C(=O)N[C@@H](CCCNC(=N)N)C(=O)N[C@H](C(=O)N[C@@H](CCC(=O)O)C(=O)N[C@@H](CO)C(N)=O)[C@@H](C)O)C(C)C)[C@@H](C)CC)C(C)C)[C@@H](C)CC [SEQ ID NO: 1] | ++ | more toxic | – | – | –
2 | APKAMRRWVQRWIRRWRPKVFQVTGSSA-NH2 [SEQ ID NO: 22] | – | – | >10 µM | 10 µM | –
3 | APKAMRRWVQRWIRRWRPKVLLHYPSQKF-NH2 [SEQ ID NO: 23] | – | – | >10 µM | 2.5 µM | –
4 | APKAMRRWVQRWIRRWRPKVLQKKGI-NH2 [SEQ ID NO: 18] | – | – | >10 µM | 5 µM | –
5 | APKAMRRWVQRWIRRWRPKVLQKNNYL-NH2 [SEQ ID NO: 21] | – | – | >10 µM | 2.5 µM | –
6 | APKAMRRWVQRWIRRWRPLQKKGI-NH2 [SEQ ID NO: 20] | – | – | >10 µM | 10 µM | –
7 | APKAMRRWVQRWIRRWRPRLQKKGI-NH2 [SEQ ID NO: 19] | – | – | >10 µM | 5 µM | –
8 | APKAMRRWVQRWIRRWRPRV-NH2 [SEQ ID NO: 17] | – | – | >10 µM | 5 µM | –
9 | APKAMRWVQRWIRRWRPKLQKKGI-NH2 [SEQ ID NO: 26] | – | – | >10 µM | 10 µM | –
10 | APKAMWVQRWIRRWRPLQKKGI-NH2 [SEQ ID NO: 27] | – | – | >10 µM | >10 µM | weakly toxic
11 | RFGRFLRKIRRFRPKVTITIQGSARF-NH2 [SEQ ID NO: 2, reference compound] | – | – | 1.25 µM | 1.25 µM | extremely toxic
12 | RRWVQRWIRRWRKVAAARRWVQRWIRRWRPKV-NH2 [SEQ ID NO: 13] | – | – | 1.25 µM | 1.25 µM | –
13 | RRWVQRWIRRWRKWV-NH2 [SEQ ID NO: 7, RRWVQRWIRRWRKWV] | – | – | 2.5 µM | 1.25 µM | –
14 | RRWVQRWIRRWRPK-NH2 [SEQ ID NO: 8, RRWVQRWIRRWRPK] | – | – | >10 µM | 10 µM | –
15 | RRWVQRWIRRWRPKLQKKGI-NH2 [SEQ ID NO: 16] | – | – | >10 µM | 10 µM | –
16 | RRWVQRWIRRWRPKRIVQRIKDFLRNLV-NH2 [SEQ ID NO: 11] | – | – | 2.5 µM | 1.25 µM | –
17 | RRWVQRWIRRWRPKVAAARRWV-NH2 [SEQ ID NO: 10] | – | – | 10 µM | 1.25 µM | –
18 | RRWVQRWIRRWRPKVAAARRWVQRWIRRWRPKV-NH2 [SEQ ID NO: 12] | – | – | 1.25 µM | 1.25 µM | –
19 | RRWVQRWIRRWRPKVLQKKGI-NH2 [SEQ ID NO: 14] | – | – | >10 µM | 10 µM | –
20 | RRWVQRWIRRWRPKW-NH2 [SEQ ID NO: 9, RRWVQRWIRRWRPKW] | – | – | 10 µM | 5 µM | –
21 | RRWVQRWIRRWRPWV-NH2 [SEQ ID NO: 6, RRWVQRWIRRWRPWV] | – | – | 10 µM | 2.5 µM | –
22 | RRWVRRWIRRWRPKV-NH2 [SEQ ID NO: 25, RRWVRRWIRRWRPKV] | – | – | >10 µM | 5 µM | –
